From patent US5919769A, “Fucose derivatives, drugs containing the same as active ingredient, and intermediates for producing the same” (Kanebo, Ltd, priority 1995, dated 1999)
Counter-ions that a name gives are not always drawn.

Key:
[1] = molecular target: L-selectin; experiment: Inhibitory test on the binding of L-selectin to sialyl Le^X (selectin-IgG chimera); settings: inhibition of L-selectin IgG chimera binding to sialyl Le^X-pentaceramide
Procedure: (§1) The experiment was carried out according to the method using selectin-IgG chimera, which was reported by Foxall, C. et al. (J. Cell Biol., 117, 895-902 (1992)).
(§2) Sialyl Le^X -pentaceramide was dissolved in 50% methanol in distilled water, and the solution was put into a 96-well plate in an amount of 100 pmol/well. The plate was allowed to stand at room temperature overnight, and the solvent therein was evaporated. The plate was washed with distilled water, and subjected to blocking with 50 mM imidazole buffer (pH 7.2) containing 5% BSA (bovine serum albumin) and 1 mM calcium chloride at room temperature for one hour.
(§3) Separately, to 500-fold diluted solution of each biotinylated anti-human IgG Fc and streptavidin-alkaline phosphatase conjugate with a 50 mM imidazole buffer (pH 7.2) containing 1% BSA and 1 mM calcium chloride, P-selectin IgG chimera was added to give a final concentration of 40 μg/ml, and the mixture was incubated at room temperature for 30 minutes to give the complex solution.
(§4) A test compound was dissolved in DMSO (except that the test compound h was dissolved in distilled water) to give 10 mM aqueous solution thereof, which was serially diluted with 50 mM imidazole buffer (pH 7.2) containing 1% BSA and 1 mM calcium chloride to give the solutions in 8 various concentrations (two-fold serial dilution from 20 μM). The test compound solution in each concentration and the above complex solution were mixed in equal volume, and the mixture was incubated at room temperature for 30 minutes to give the reaction solution.
(§5) After the blocking was completed, the blocking solution in the above plate was discarded, and the plate was washed with 50 mM imidazole buffer (pH 7.2), and thereto was added the above reaction solution in an amount of 50 μl/well. The plate was incubated at 37° C. for 45 minutes, and then washed three times with 50 mM imidazole buffer (pH 7.2) and washed three times with distilled water. 1M diethanolamine (pH 9.8) containing 0.01% magnesium chloride and 1 mg/ml p-nitrophenyl phosphate was put into each well in an amount of 50 μl/well, and the plate was allowed to stand for 1 to 2 hours for color development. The absorbance at 405 nm was measured, and the binding rate (%) was calculated by the following equation, based on the absorbance (X) of the wells containing a test compound at various concentrations and the absorbance (A) of the wells containing no test compound.
(§6) IC50 was evaluated by probit method from the binding rate.
Inhibitory test on the binding of L-selectin to sialyl Le^X :
The same procedures of Experiment 1 were repeated except that L-selectin IgG chimera (40 μg/ml) was used instead of P-selectin IgG chimera (40 μg/ml).

[2] = molecular target: P-selectin; experiment: Inhibitory test on the binding of P-selectin to sialyl Le^X (selectin-IgG chimera); settings: inhibition of P-selectin IgG chimera binding to sialyl Le^X-pentaceramide
Procedure: Inhibitory test on the binding of P-selectin to sialyl Le^X :
as §1, §2, §3, §4, §5, §6

CC(=O)N[C@H]1[C@H]([C@H](O)[C@H](O)CO)O[C@@](O[C@H]2[C@@H](O)[C@@H](CO)O[C@@H](O[C@@H]([C@H](O[C@@H]3O[C@@H](C)[C@@H](O)[C@@H](O)[C@@H]3O)[C@H](C=O)NC(C)=O)[C@H](O)CO)[C@@H]2O)(C(=O)O)C[C@@H]1O [compound X, Sialyl Le^X, reference compound]
IC50 [1]: > 500000 nM | IC50 [2]: > 500000 nM

CCCCCCCCCCCCCCC(CCCCCCCCCCCCCC)C(=O)N[C@@H](CO[C@@H]1O[C@H]([C@H](C)O)[C@@H](O)[C@@H]1O)C(=O)N[C@@H](CCC(=O)O)C(=O)NC [compound a, [N-(2-tetradecylhexadecanoyl)-O-(α-L-fucofuranosyl)-L-seryl]-L-glutamic acid 1-methylamide]
IC50 [1]: 2200 nM | IC50 [2]: 1300 nM

CCCCCCCCCCCCCCC(CCCCCCCCCCCCCC)C(=O)N[C@@H](CO[C@@H]1O[C@H]([C@H](C)O)[C@@H](O)[C@@H]1O)C(=O)N[C@H](CCC(=O)O)C(=O)NC [compound b, [N-(2-tetradecylhexadecanoyl)-O-(α-L-fucofuranosyl)-L-seryl]-D-glutamic acid 1-methylamide]
IC50 [1]: 1500 nM | IC50 [2]: 1000 nM

CCCCCCCCCCCCCCC(CCCCCCCCCCCCCC)C(=O)N[C@H](CO[C@@H]1O[C@H]([C@H](C)O)[C@@H](O)[C@@H]1O)C(=O)N[C@H](CCC(=O)O)C(=O)NC [compound d, [N-(2-tetradecylhexadecanoyl)-O-(α-L-fucofuranosyl)-D-seryl]-D-glutamic acid 1-methylamide]
IC50 [1]: 500 nM | IC50 [2]: 200 nM

CCCCCCCCCCCCCCC(CCCCCCCCCCCCCC)C(=O)N[C@@H](CO[C@@H]1O[C@H]([C@H](C)O)[C@@H](O)[C@@H]1O)C(=O)NCCCC(=O)O [compound e, 4-N-[N-(2-tetradecylhexadecanoyl)-O-(α-L-fucofuranosyl)-L-seryl]aminobutyric acid]
IC50 [1]: 1800 nM | IC50 [2]: 500 nM

CCCCCCCCCCCCCCC(CCCCCCCCCCCCCC)C(=O)N[C@@H](CO[C@@H]1O[C@H]([C@H](C)O)[C@@H](O)[C@@H]1O)C(=O)NCCCCC(=O)O [compound f, 5-N-[N-(2-tetradecylhexadecanoyl)-O-(α-L-fucofuranosyl)-L-seryl]aminovaleric acid]
IC50 [1]: 2500 nM | IC50 [2]: 1200 nM

CCCCCCCCCCCCCCC(CCCCCCCCCCCCCC)C(=O)N[C@@H](CO[C@@H]1O[C@H]([C@H](C)O)[C@@H](O)[C@@H]1O)C(=O)N[C@H](CCC(=O)O)C(=O)Nc1ccccc1 [compound g, [N-(2-tetradecylhexadecanoyl)-O-(α-L-fucofuranosyl)-L-seryl]-D-glutamic acid 1-anilide]
IC50 [1]: 1700 nM | IC50 [2]: 100 nM

CCCCCCCCCCCCCCC(CCCCCCCCCCCCCC)C(=O)N[C@@H](CO[C@@H]1O[C@H]([C@H](C)O)[C@@H](O)[C@@H]1O)C(=O)N[C@H](CCC(=O)O)C(=O)NC [compound h, [N-(2-tetradecylhexadecanoyl)-O-(α-L-fucofuranosyl)-L-seryl]-D-glutamic acid 1-methylamide sodium salt]
IC50 ([1]; sodium salt): 300 nM | IC50 ([2]; sodium salt): 1200 nM

CCCCCCCCCCCCCCC(CCCCCCCCCCCCCC)C(=O)N[C@@H](CO[C@@H]1O[C@@H](C)[C@@H](O)[C@@H](O)[C@@H]1O)C(=O)N[C@@H](CCC(=O)O)C(=O)NC [compound i, [N-(2-tetradecylhexadecanoyl)-O-(α-L-fucopyranosyl)-L-seryl]-L-glutamic acid 1-methylamide]
IC50 [1]: 39000 nM | IC50 [2]: 1900 nM

CCCCCCCCCCCCCCC(CCCCCCCCCCCCCC)C(=O)N[C@@H](CO[C@@H]1O[C@@H](C)[C@@H](O)[C@@H](O)[C@@H]1O)C(=O)N[C@H](CCC(=O)O)C(=O)NC [compound j, [N-(2-tetradecylhexadecanoyl)-O-(α-L-fucopyranosyl)-L-seryl]-D-glutamic acid 1-methylamide]
IC50 [1]: 6000 nM | IC50 [2]: 500 nM
